ChEMBL document CHEMBL2073898, “Overexpression of the BCRP/MXR/ABCP gene in a topotecan-selected ovarian tumor cell line” (Cancer Res, 1999)

Experiments:
[1] = target: T1, Broad substrate specificity ATP-binding cassette transporter ABCG2 (Homo sapiens, UniProt Q9UNQ0); test: TP_TRANSPORTER: intracellular concentration of the drug is lower compared with IGROV1 in MX3 cells; type: functional, cell-based
T1 sequence (Q9UNQ0 whole entry): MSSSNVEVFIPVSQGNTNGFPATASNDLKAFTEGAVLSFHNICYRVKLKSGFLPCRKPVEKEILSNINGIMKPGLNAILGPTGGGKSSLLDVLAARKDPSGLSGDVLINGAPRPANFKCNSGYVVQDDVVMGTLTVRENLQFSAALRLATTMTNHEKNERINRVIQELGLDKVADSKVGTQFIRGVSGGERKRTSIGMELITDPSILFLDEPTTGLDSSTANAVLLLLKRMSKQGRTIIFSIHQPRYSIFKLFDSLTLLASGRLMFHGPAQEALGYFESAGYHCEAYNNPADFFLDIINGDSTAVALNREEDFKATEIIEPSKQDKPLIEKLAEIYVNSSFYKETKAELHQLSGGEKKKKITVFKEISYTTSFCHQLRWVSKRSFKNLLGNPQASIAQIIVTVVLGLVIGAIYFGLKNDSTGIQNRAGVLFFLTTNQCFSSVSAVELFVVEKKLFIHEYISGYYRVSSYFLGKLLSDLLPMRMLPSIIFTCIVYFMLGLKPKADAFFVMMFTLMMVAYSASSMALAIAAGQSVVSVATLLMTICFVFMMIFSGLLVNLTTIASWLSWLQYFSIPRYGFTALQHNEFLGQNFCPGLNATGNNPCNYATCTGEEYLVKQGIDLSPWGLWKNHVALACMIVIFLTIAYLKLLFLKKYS

[2] = target: T1, Broad substrate specificity ATP-binding cassette transporter ABCG2; test: TP_TRANSPORTER: intracellular concentration of the drug is lower compared with IGROV1 in T8 cells; type: functional, cell-based

- Activity [1]: substrate [+]
- Activity [2]: substrate [+]
Compound: CC[C@@]1(O)C(=O)OCc2c1cc1n(c2=O)Cc2cc3c(CN(C)C)c(O)ccc3nc2-1 [TOPOTECAN]
